Among the test systems are DMS-114; DMS-273; HOP-18; KM-20L2; M19-MEL; SNB-78; XF498; LXFL 529; RXF 631.
Assay in all cases: inhibition of tumour cell growth, NCI panel, 48 h

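Growth conditions: 96-well plates. Treatment: test compound, 48 hours, 5 concentrations. Analysis: linear interpolation between bracketing concentrations; unreached endpoints set to highest concentration. GI50: concentration for 50% inhibition of growth.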 Active and inactive are the calls of the source. Rule as the data show it: active = GI50 up to about 1.1 µM and inactive = higher.

As for `CCCCCCCCCCCC[S+](C)C`, the GI50 is 2.5 µM (inactive) with DMS-114; 5.2 µM (inactive) in the experiment with DMS-273; 4.97 µM (inactive) in the experiment with HOP-18; 5.11 µM (inactive) with KM-20L2; 1.45 µM (inactive) with M19-MEL; 5.2 µM (inactive) in the experiment on SNB-78. In addition, in the experiment with XF498, the GI50 is 2.69 µM (inactive).
Take `Cc1cc(=O)oc2c(C)c(OCCCOc3ccc4c(C)cc(=O)oc4c3C)ccc12`: the GI50 in the experiment on DMS-114, in the experiment with DMS-273, with HOP-18, in the experiment on KM-20L2, in the experiment on LXFL 529 and in the experiment on M19-MEL was > 100 µM (inactive) each time. Moreover, the GI50 in the experiment with SNB-78 and in the experiment with XF498 was > 100 µM (inactive) each time.
Regarding `O=C1C2=C(c3ccccc31)C(c1ccccc1Cl)NC(S)=N2` (stereo not drawn), the GI50 in the experiment on DMS-273 is 68.7 µM (inactive); in the experiment with KM-20L2, 74.3 µM (inactive); in the experiment with LXFL 529, 35.3 µM (inactive); with M19-MEL, 44.2 µM (inactive); with XF498, 25.6 µM (inactive).
`CN1N=C(N)c2cn(C3OC(COP(=O)(O)O)C(O)C3O)c3ncnc1c23` (stereo not drawn): the GI50 in the experiment on DMS-114 is 1620 µM (inactive); with DMS-273 it was 18.9 µM (inactive); in the experiment with HOP-18, 9.14 µM (inactive); in the experiment with KM-20L2, 58.5 µM (inactive); in the experiment on M19-MEL, 390 µM (inactive); in the experiment on SNB-78, 79.6 µM (inactive). The GI50 in the experiment on XF498 is 12.4 µM (inactive).
As to `CNc1ccc(/C=C2\C=Cc3ccccc32)cc1`, the GI50 in the experiment with DMS-114 is 17 µM (inactive); in the experiment with DMS-273, 14.2 µM (inactive); in the experiment with HOP-18 it was 16.4 µM (inactive); in the experiment on KM-20L2 it was 19.1 µM (inactive); in the experiment with LXFL 529, 25.9 µM (inactive); in the experiment on M19-MEL, 43.2 µM (inactive). Further, the GI50 is 44.6 µM (inactive) with SNB-78 and 40.9 µM (inactive) in the experiment with XF498.
As for `C=C1C(=O)OC2/C=C(\C=O)CC/C=C(\C)C(O)C[C@@H]12` (stereo partly drawn), the GI50 is 11.7 µM (inactive) in the experiment with DMS-114; 4.36 µM (inactive) in the experiment on DMS-273; 16.9 µM (inactive) with HOP-18; 9.25 µM (inactive) with KM-20L2; 3.36 µM (inactive) in the experiment with LXFL 529; 5.45 µM (inactive) with M19-MEL. For the same compound, the GI50 with SNB-78 is 4.24 µM (inactive); in the experiment on XF498 it was 4.99 µM (inactive).
Turning to `Cc1c2c(cc3c(=O)ccn(CCN(C)C)c13)c(=O)ccn2CCN(C)C`, the GI50 is 16.3 µM (inactive) in the experiment on DMS-114; 4.18 µM (inactive) with DMS-273; 15.7 µM (inactive) with HOP-18; 5.04 µM (inactive) with KM-20L2; 4.46 µM (inactive) with LXFL 529; 16.4 µM (inactive) in the experiment with M19-MEL. Moreover, the figures for the GI50 with SNB-78 and in the experiment with XF498 were 47.1 µM (inactive) and 10.4 µM (inactive), respectively.
On to `COC(=O)c1oc([N+](=O)[O-])c(-c2ccccc2)c1-c1ccccc1`, for which the GI50 with DMS-114 is 88.3 µM (inactive); in the experiment with DMS-273, > 100 µM (inactive); in the experiment with HOP-18, > 100 µM (inactive); in the experiment with KM-20L2, > 100 µM (inactive); with LXFL 529 it was > 100 µM (inactive); in the experiment on M19-MEL, 36.8 µM (inactive). Further, the GI50 with RXF 631, with SNB-78 and in the experiment with XF498 was > 100 µM (inactive) throughout.
As for `FC(F)(F)C1(Br)C(c2ccccc2)=C1c1ccccc1`, the GI50 in the experiment with DMS-114 was 15.2 µM (inactive); in the experiment on DMS-273 it was 17.9 µM (inactive); in the experiment with HOP-18 it was 16.5 µM (inactive); in the experiment with KM-20L2, 16.1 µM (inactive); in the experiment on LXFL 529, 14.3 µM (inactive); in the experiment on M19-MEL, 15.6 µM (inactive). Further, the GI50 in the experiment with RXF 631 is 22.6 µM (inactive); with SNB-78, 25.8 µM (inactive); in the experiment on XF498 it was 15.2 µM (inactive).
For the compound `CC1OC(=O)C2CC3CCCCC3C(/C=C/C3CCCC(C)N3C)C12` (stereo not drawn), the GI50 is > 100 µM (inactive) in the experiment with DMS-114; > 100 µM (inactive) with DMS-273; > 100 µM (inactive) with HOP-18; 79.8 µM (inactive) in the experiment on KM-20L2; > 100 µM (inactive) with LXFL 529; > 100 µM (inactive) in the experiment on M19-MEL. In addition, the GI50 was > 22.5 µM (inactive) in the experiment on SNB-78 and > 100 µM (inactive) with XF498.
Consider `CN(C)C(=S)/N=c1\ss/c(=N\C(=S)N(C)C)n1-c1ccc(Cl)cc1`, for which the GI50 is 39.9 µM (inactive) with DMS-273; > 100 µM (inactive) in the experiment with KM-20L2; > 100 µM (inactive) with LXFL 529; > 100 µM (inactive) in the experiment with SNB-78; > 100 µM (inactive) in the experiment on XF498.
For the compound `CC1=CC(=O)C(C)(C2=NC(C)(C)CO2)c2ccccc21` (stereo not drawn), the GI50 is > 100 µM (inactive) with DMS-114; 31.6 µM (inactive) in the experiment on HOP-18; > 100 µM (inactive) with KM-20L2; > 100 µM (inactive) with LXFL 529; > 100 µM (inactive) in the experiment on M19-MEL; > 100 µM (inactive) in the experiment on RXF 631.
Consider `CC(=O)Nc1ccc(C2C(C(=O)Nc3ccccc3)=C(C)NC(C)=C2C(=O)Nc2ccccc2)cc1`, for which the GI50 in the experiment with DMS-114 is 35.7 µM (inactive); with DMS-273, > 100 µM (inactive); in the experiment with HOP-18, > 100 µM (inactive); in the experiment on KM-20L2, > 100 µM (inactive); in the experiment with LXFL 529, > 64.9 µM (inactive); in the experiment on M19-MEL, > 100 µM (inactive). Besides, the GI50 in the experiment with SNB-78 and with XF498 was > 100 µM (inactive) each time.
With `N#CCC(=O)N/N=C(\C(=O)Nc1ccc(Cl)c(Cl)c1)C1CN(c2ccccc2)N=C1N` (stereo not drawn), the GI50 with DMS-114, with DMS-273, in the experiment on HOP-18, with KM-20L2, with LXFL 529 and in the experiment on M19-MEL was > 100 µM (inactive) throughout. For the same compound, the GI50 with SNB-78 was > 100 µM (inactive).
Consider `NNC(=S)N/N=C(\c1nc2ccc(Cl)cc2nc1O)C(O)c1cccc([N+](=O)[O-])c1` (stereo not drawn), for which the GI50 in the experiment on DMS-273 is > 41.1 µM (inactive); with HOP-18 it was > 100 µM (inactive); with KM-20L2 it was > 100 µM (inactive); in the experiment on LXFL 529, > 74.6 µM (inactive); in the experiment with M19-MEL it was > 100 µM (inactive); in the experiment on RXF 631 it was 32.3 µM (inactive). Moreover, the GI50 with SNB-78 and with XF498 was > 100 µM (inactive) in each case.
With `CCOC(=O)C(=O)Nc1c(CC)cccc1C(C)C`, the GI50 in the experiment with DMS-273, with KM-20L2, with LXFL 529, with M19-MEL, with SNB-78 and in the experiment on XF498 was > 100 µM (inactive) in each case.
Take `COC(=O)/C(C=O)=C/Sc1ccccc1`: the GI50 in the experiment with DMS-114 is 16.7 µM (inactive); in the experiment with DMS-273, 18.4 µM (inactive); in the experiment on HOP-18, > 100 µM (inactive); in the experiment with KM-20L2, 29.7 µM (inactive); with LXFL 529, 18.3 µM (inactive); in the experiment with M19-MEL, 20 µM (inactive). In addition, the GI50 in the experiment on RXF 631 was 14.9 µM (inactive); in the experiment on SNB-78, 26.5 µM (inactive); in the experiment with XF498 it was 40 µM (inactive).
In the case of `Cc1ccccc1NC(=O)C(=O)C(C#N)c1ccccc1C` (stereo not drawn), the GI50 with DMS-114, in the experiment with DMS-273, in the experiment on HOP-18, with KM-20L2, in the experiment on LXFL 529 and with SNB-78 was > 100 µM (inactive) in each case. Moreover, in the experiment on XF498, the GI50 is 34 µM (inactive).
Consider `N#Cc1c(N)c(C(=O)O)nn(-c2cccc(C(F)(F)F)c2)c1=O`, for which the GI50 in the experiment with HOP-18 was 29.2 µM (inactive); with KM-20L2, > 100 µM (inactive); in the experiment on LXFL 529 it was > 100 µM (inactive); in the experiment with M19-MEL, > 100 µM (inactive); in the experiment on RXF 631, > 100 µM (inactive); with SNB-78, > 100 µM (inactive). Moreover, the GI50 with XF498 was > 100 µM (inactive).
On to `Cn1cc(C(=O)C2CCCCC2)ccc1=O`, for which the GI50 in the experiment with DMS-114, with DMS-273, in the experiment with KM-20L2, in the experiment on RXF 631, with SNB-78 and with XF498 was > 100 µM (inactive) in each case.
Consider `O=C1c2cc([N+](=O)[O-])cc3cc([N+](=O)[O-])cc(c23)C(=O)N1CCCNCCNCCCN1C(=O)c2cc([N+](=O)[O-])cc3cc([N+](=O)[O-])cc(c23)C1=O`, for which the GI50 is 0.0469 µM (active) with DMS-114; < 0.01 µM (active) in the experiment with DMS-273; 0.542 µM (active) with HOP-18; 0.129 µM (active) in the experiment on KM-20L2; < 0.01 µM (active) with LXFL 529; 0.0381 µM (active) in the experiment with M19-MEL. The GI50 in the experiment with SNB-78 was < 0.0193 µM (active); in the experiment with XF498, < 0.01 µM (active).
`Clc1ccc2cccc3c2c1C1OC3c2ccccc21` (stereo not drawn): the GI50 with DMS-114 is > 100 µM (inactive); with DMS-273, > 100 µM (inactive); in the experiment with HOP-18, > 100 µM (inactive); in the experiment with KM-20L2, 78.9 µM (inactive); in the experiment on LXFL 529 it was > 100 µM (inactive); with M19-MEL, > 100 µM (inactive). Also, the GI50 in the experiment on SNB-78 and in the experiment on XF498 was > 100 µM (inactive) in each case.
`O=C1C2C(C(=O)N1c1ccccc1)C1c3ccccc3C2C2C(=O)N(c3ccccc3)C(=O)C21` (stereo not drawn): the GI50 is 3.08 µM (inactive) in the experiment with DMS-114; 3.46 µM (inactive) in the experiment with DMS-273; > 100 µM (inactive) with HOP-18; 18.2 µM (inactive) with KM-20L2; 38.5 µM (inactive) in the experiment on LXFL 529; 39.5 µM (inactive) with M19-MEL.
On to `CC(C)(C)OC(=O)C1=C(O)C(C(=O)OC(C)(C)C)C23CCCCC12C(C(=O)OC(C)(C)C)C(O)=C3C(=O)OC(C)(C)C` (stereo not drawn), for which the GI50 in the experiment with DMS-114, in the experiment on DMS-273, in the experiment on HOP-18, in the experiment on KM-20L2, in the experiment with LXFL 529 and in the experiment on M19-MEL was > 100 µM (inactive) each time. In addition, the GI50 with SNB-78 and in the experiment on XF498 was > 100 µM (inactive) each time.
Regarding `COC(=O)N/N=C(\c1nc2ccc(Cl)cc2nc1O)C(O)c1ccc([N+](=O)[O-])cc1` (stereo not drawn), the GI50 with DMS-114, in the experiment on DMS-273, in the experiment with KM-20L2, with LXFL 529, in the experiment with M19-MEL and in the experiment on RXF 631 was > 100 µM (inactive) throughout. Also, the GI50 in the experiment with SNB-78 is > 100 µM (inactive).

Source of the values: ChEMBL document CHEMBL1201862, “PubChem BioAssay data set” (2004).
